What was measured:
[1] = target: T1, LGC-41 (Caenorhabditis elegans, UniProt Q18518); experiment: two-electrode voltage clamp in Xenopus oocytes, agonist dose-response; format: cell-based
T1 construct: homomeric channel, cDNA from wild-type N2
T1 sequence (Q18518 26-540): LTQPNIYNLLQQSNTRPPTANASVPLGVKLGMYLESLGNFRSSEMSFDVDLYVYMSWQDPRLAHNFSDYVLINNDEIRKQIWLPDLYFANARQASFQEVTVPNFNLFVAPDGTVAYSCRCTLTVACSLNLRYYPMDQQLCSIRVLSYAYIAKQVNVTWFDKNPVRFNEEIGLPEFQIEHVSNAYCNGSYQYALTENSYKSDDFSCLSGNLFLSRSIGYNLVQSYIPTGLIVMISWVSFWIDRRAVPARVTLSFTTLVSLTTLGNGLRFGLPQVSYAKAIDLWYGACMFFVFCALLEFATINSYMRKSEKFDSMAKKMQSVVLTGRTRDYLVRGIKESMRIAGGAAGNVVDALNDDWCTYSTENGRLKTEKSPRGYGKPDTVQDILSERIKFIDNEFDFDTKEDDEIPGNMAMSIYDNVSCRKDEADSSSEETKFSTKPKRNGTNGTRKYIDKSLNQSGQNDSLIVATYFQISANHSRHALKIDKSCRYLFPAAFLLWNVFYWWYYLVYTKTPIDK

[2] = target: T1, LGC-41; experiment: two-electrode voltage clamp in Xenopus oocytes, block of current induced by […] betaine; format: cell-based

SMILES	EC50 [1]	IC50 [2]
C[N+](C)(C)CC(=O)O [betaine]	211 µM	
O=C1C[C@@H]2OCC=C3CN4CC[C@]56c7ccccc7N1[C@H]5[C@H]2[C@H]3C[C@H]46 [strychnine]		973 µM
C=C(C)[C@@H]1[C@H]2OC(=O)[C@@H]1[C@]1(O)C[C@H]3OC34C(=O)O[C@H]2[C@@]41C.CC(C)(O)[C@@H]1[C@H]2OC(=O)[C@@H]1[C@]1(O)C[C@H]3OC34C(=O)O[C@H]2[C@@]41C (stereo partly drawn) [picrotoxin]		144 µM

— PMC9860315, “Neuronally produced betaine acts via a ligand-gated ion channel to control behavioral states” (Proceedings of the National Academy of Sciences of the …, 2022)
